The target of this experiment is T1, Recombinant HDAC9 isoform 4 (Homo sapiens, UniProt Q9UKV0).
T1 construct: purchased BPS Bioscience
T1 sequence (Q9UKV0 1-1066 isoform Q9UKV0-5): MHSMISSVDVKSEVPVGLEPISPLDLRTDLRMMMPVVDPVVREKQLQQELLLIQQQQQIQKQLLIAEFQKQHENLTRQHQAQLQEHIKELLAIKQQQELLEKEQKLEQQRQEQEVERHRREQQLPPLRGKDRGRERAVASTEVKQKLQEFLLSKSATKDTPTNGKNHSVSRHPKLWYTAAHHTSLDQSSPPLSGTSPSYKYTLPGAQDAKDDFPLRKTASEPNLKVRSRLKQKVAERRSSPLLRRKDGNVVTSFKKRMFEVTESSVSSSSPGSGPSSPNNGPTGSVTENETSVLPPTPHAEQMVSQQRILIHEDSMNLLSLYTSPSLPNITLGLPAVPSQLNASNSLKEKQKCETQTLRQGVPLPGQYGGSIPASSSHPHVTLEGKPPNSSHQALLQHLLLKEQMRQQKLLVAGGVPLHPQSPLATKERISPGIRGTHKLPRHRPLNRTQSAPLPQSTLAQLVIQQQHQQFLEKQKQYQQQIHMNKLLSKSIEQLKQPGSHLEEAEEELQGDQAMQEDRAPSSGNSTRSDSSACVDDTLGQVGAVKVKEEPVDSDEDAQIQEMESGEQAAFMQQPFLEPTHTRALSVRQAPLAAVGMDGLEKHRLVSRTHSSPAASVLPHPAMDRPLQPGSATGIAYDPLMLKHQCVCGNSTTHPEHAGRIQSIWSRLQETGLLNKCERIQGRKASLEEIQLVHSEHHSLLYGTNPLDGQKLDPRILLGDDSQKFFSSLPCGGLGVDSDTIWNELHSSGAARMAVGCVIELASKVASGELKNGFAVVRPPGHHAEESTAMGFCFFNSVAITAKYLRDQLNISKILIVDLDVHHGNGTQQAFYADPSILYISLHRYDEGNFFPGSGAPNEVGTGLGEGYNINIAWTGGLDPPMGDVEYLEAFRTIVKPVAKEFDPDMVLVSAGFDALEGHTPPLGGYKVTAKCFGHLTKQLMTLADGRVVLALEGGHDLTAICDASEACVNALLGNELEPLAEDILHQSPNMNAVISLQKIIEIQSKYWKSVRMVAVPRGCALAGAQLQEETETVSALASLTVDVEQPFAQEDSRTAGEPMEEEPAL
The experiment can be described thus: Histone Deacetylase 9 (HDAC9) inhibition assay, fluorogenic substrate. The experiment is classed as biochemical. The following applies: mean of a minimum of 2 experiments; 11 point 3x dilution series from 100 uM; substrate 4.5 uM; read-out: mean pIC50, inhibition of HDAC9 (converted).
Regarding `O=C(NCC1(c2nc(-c3ccncc3)cs2)CCOCC1)c1cccc(-c2noc(C(F)(F)F)n2)c1` [Example 21, N-((4-(4-(Pyridin-4-yl)thiazol-2-yl)tetrahydro-2H-pyran-4-yl)methyl)-3-(5-(trifluoromethyl)-1,2,4-oxadiazol-3-yl)benzamide], the IC50 is under 1 µM.

For `O=C(NCCC(O)c1coc(-c2ccc(F)cc2)n1)c1cccc(-c2noc(C(F)(F)F)n2)c1` (centres unmarked) [Example 110, N-(3-(2-(4-Fluorophenyl)oxazol-4-yl)-3-hydroxypropyl)-3-(5-(trifluoromethyl)-1,2,4-oxadiazol-3-yl)benzamide], the IC50 is under 1 µM.

On to `O=S(=O)(NCC1(c2nc(-c3ccccc3)cs2)CCOCC1)c1cccc(-c2noc(C(F)(F)F)n2)c1` [Example 32, N-((4-(4-Phenylthiazol-2-yl)tetrahydro-2H-pyran-4-yl)methyl)-3-(5-(trifluoromethyl)-1,2,4-oxadiazol-3-yl)benzenesulfonamide], for which the IC50 is under 1 µM.

For `O=C(NCCc1nc(-c2ccccc2)no1)c1cccc(-c2noc(C(F)(F)F)n2)c1` [Example 132, N-(2-(3-Phenyl-1,2,4-oxadiazol-5-yl)ethyl)-3-(5-(trifluoromethyl)-1,2,4-oxadiazol-3-yl)benzamide], the IC50 is under 1 µM.

On to `O=C(NCC1(c2cccc(-c3ccccc3)c2)CCOCC1)c1cncc(-c2noc(C(F)(F)F)n2)c1` [Example 78, N-((4-([1,1′-Biphenyl]-3-yl)tetrahydro-2H-pyran-4-yl)methyl)-5-(5-(trifluoromethyl)-1,2,4-oxadiazol-3-yl)nicotinamide], for which the IC50 was under 1 µM.

For the origin of these results see US8901156B2, “Compounds and methods” (Tempero Pharmaceuticals, Inc., priority 2010, dated 2014).
